Reference: patent US20060034807A1, “Innervated artificial tissues and uses thereof” (Ottawa Health Research Institute, priority 2002, published 2006)

Assays:
[1] = test system: innervated TE cornea constructs; experiment: Substance P release from innervated TE corneas (EIA); assay type: cell-based, chick; details: for SP release versus controls: 1% capsaicin or 50 μM veratridine, P<0.05
Experimental: To elicit a functional response such as SP release, innervated TE cornea constructs were treated with capsaicin or veratridine. Briefly, innervated tissue engineered corneas were treated with a total of 1.5 ml of SHEM containing 8.5% Tween 80 and 1.5% ethanol either alone (control) or with 1) 1% (w/v) capsaicin, or 2) 50 μM veratridine. At 0, 1, 3, 6, 12 and 24 hours post-treatment, culture supernatants were collected, flash frozen in liquid nitrogen and stored at −80° C. Substance P content of the medium was measured using a substance P specific competitive peptide enzyme immunoassay (EIA) kit (Peninsula Laboratories). […] All groups, n 3. *P<0.001 versus control (2-way ANOVA).

[2] = test system: HUVEC; experiment: Effect of growth factors and retinyl acetate on angiogenesis in the sclera model; assay type: cell-based, Human
Experimental: The fibrinogen solution (3 mg/ml) was mixed with the thrombin solution (1.75 mg/ml) at a ratio of 1:0.03 v/v in wells of different sizes. Within a minute, enzymatic polymerization of fibrinogen gave fibrin gels under gentle agitation at 37° C. To incorporate endothelial cells in the fibrin matrix and to induce angiogenesis, endothelial cells were firstly seeded on the bottom of gelatin-coated wells at high density to provide a confluent monolayer at 48 hours. […] Fibrin gels were obtained again within a minute. Within 2 weeks of culture at 37° C. with 5% CO2, tube like vessels were generated within the matrix that associated together in order to form cord structures. These were visible by light microscopy and were counted in order to give an indication of vessel numbers. A combinatorial approach was utilized to evaluate what factors are required to achieve the optimal number of blood vessels within this sclera model. The pseudo sclera was generated as per Section 3.1.3. […] The effectiveness of the growth factors in positively affecting angiogenesis was evaluated by counting the number of tubes identified in a dish by brightfield microscopy. […] The effect of RA on angiogenesis was evaluated in the system described above. […] Blood vessel formation was evaluated by counting the number of vessels within a treated dish. […]

[3] = test system: neutrophils; experiment: Zymographic detection of metalloproteases; assay type: cell-based; details: neutrophils added on top of collagen matrix
Experimental: Metalloproteinases MMPs) are a family of closely related zinc-containing enzymes whose principal function is thought to be an integral part of generalized tissue remodeling as well as the formation of new blood vessels. Zymography has the advantage that in addition to detecting enzyme activity it can be used to provide information about the molecular weight of an enzyme and so help identify the enzyme. To achieve this dissolved gelatin is incorporated into a polyacrylamide gel, samples are added to the gel, separated by electrophoresis and the gel allowed to incubate for a while to allow the enzymes to degrade the gelatin. When the gels are stained for proteins clear lysis bands are apparent where the metalloproteinases have degraded the gelatin.

[4] = test system: nerve bundles growing into the cornea; experiment: Electrophysiological recording of evoked action potentials in TE corneas; assay type: cell-based, chick; details: 50 mM lidocaine HCl; stimulation of ganglion cell cluster
Description: Direct electrophysiological recording from the corneal epithelium was therefore conducted to confirm that nerve bundles growing into the cornea were able to conduct lidocaine-sensitive action potentials that were evoked by stimulation of the ganglion cell cluster (FIG. 3C, D). Tissue engineered corneas were transferred into an interface recording chamber, perfused with artificial saline containing (in mM): NaCl: 126, KCl: 3.0, MgSO4: 2.0, NaHCO3: 26, NaH2PO4 1.25, CaCl2: 2.0, dextrose: 10, oxygenated with 95% O2/5% CO2 at room temperature. Cathodal stimulation of ganglion cell clusters was done using silver wires pressed lightly against the surface and applying square wave stimulus pulses of 50 μs duration and typically 60-80 V in amplitude. Differential recordings of electrical responses from nerve fibre bundles were recorded with glass micropipettes (≈50 μm tips) filled with 150 mM NaCl. Because of the close proximity of the stimulation to the recording electrodes, a very large stimulus artefact was generated that obscured the very small action potentials (FIG. 3C, the action potential is indicted by the arrow).
To observe action potentials in isolation, evoked responses were recorded before and after addition of 50 mM lidocaine HCl. […]

COc1cc(CNC(=O)CCCC/C=C/C(C)C)ccc1O [capsaicin]
release of SP versus controls ([1]; 1% (w/v) capsaicin, 1, 3, 6, 12 and 24 hours, P<0.001): significantly greater | SP release versus controls ([1]; 6 hours post-treatment): significant increase | SP release versus controls ([1]; 24 hours post-treatment): significant increase

CC(=O)OC/C=C(C)/C=C/C=C(C)/C=C/C1=C(C)CCCC1(C)C [RA, Retinyl acetate]
number of blood vessels ([2]; high levels of RA): decreased | Blood vessel formation (number of vessels) ([2]; various concentrations of RA): increases in a dose dependent fashion and is optimal at an intermediate range

formyl-Met-Leu-Phe [FMLP]
stimulation of neutrophils (MMP-2 and MMP-9 detected) [3]: able to stimulate them

CCN(CC)CC(=O)Nc1c(C)cccc1C [lidocaine]
sensitivity of evoked action potentials [4]: lidocaine-sensitive
